Laboratory results from patent US20220073475A1, “5-MEMBERED HETEROARYL COMPOUNDS CONTAINING A HYDROXAMATE MOIETY AND THEIR USE” (UNIVERSITE DE LILLE, priority 2019, published 2022).
Several values for one entry are separate records, joined by “and”; a condition that tells them apart may be missing. Equal entries are not always repeated.

System: OPM2 cells
Experiment: CFZ potency increase, ratio of CC50 of CFZ alone / with compound
Assay type: cell-based, human
Details: OPM2, compound at 7.5 μM (Table 5)
Description: Human multiple myeloma cells OPM2 (ACC 50, DSMZ) are maintained at 0.3-0.7 10^6 cells/mL in RPMI1640 medium supplemented with GlutaMAX™, 10% fetal bovine serum and 1% penicillin-streptomycin.
We developed a cell-based, high content assay allowing the rapid detection and quantification of apoptotic cells. Caspase-3/7 activity was detected in real-time using the NucView™ 488 Caspase-3 substrate (Biotium), where the caspase-3/7 substrate peptide sequence DEVD is attached to a nucleic acid dye. The NucView™ 488 reagent crosses the plasma membrane to enter the cytoplasm, where the dye is unable to bind to DNA and remains non-fluorescent. Once the substrate has been cleaved by activated caspase-3/7 in apoptotic cells, the high-affinity DNA dye is released and migrates to the cell nucleus to stain the nucleus with a bright green fluorescence. All cell nuclei were also labeled with Hoechst 33342 (Ozyme).
For OPM2, briefly, nanoliters of compound and cytotoxic agent in DMSO stock solutions were first transferred and combined in 384-microtiter well plate using an Echo555 liquid handler (Labcyte). The exact volume of each solution to be transferred was calculated to achieve subsequently the target concentration in the 70 μL volume incubate. Final DMSO content was maintained at 0.2%. Then, 70 μL of cells treated with 1 μM NucView™ 488 and 20 ng/mL Hoechst 33342 were distributed to the plates to obtain a final density of 12,000 cells per well. The microplates were incubated at 37° C. and 5% CO2 in an automated LiCONiC STR240 UB cell incubator, and images were acquired at various times at 405 nm and 488 nm with the high-resolution automated confocal microscope INCell 6000 (GE). Four fields per well were read with the 20× objective in a confocal mode. The BioCel workstation was managed by VWorks automation control software
For all cells, Columbus software (Perkin) was used for image quantification and analysis. First, Hoechst 33342 staining was used for an automated detection of nuclei, in which the mean fluorescence intensity for NucView™ 488 was quantified. Inspection of control cells at initial time was used to set a threshold level of NucView™ 488 fluorescence to separate non apoptotic cells from apoptotic cells. Finally, for each well, the result was expressed as percentage of apoptotic cells in the total cell population. CC50 values were calculated from concentration-response curves by a nonlinear regression analysis at four parameters using Excel Fit or GraphPad Prim softwares.
Activity=(% of apoptotic cells with cytotoxic agent in combination with compound of the invention)/(% of apoptotic cells with cytotoxic agent alone). • Ratio of CC50: The CC50 of the cytotoxic agent was calculated in absence and in presence of a compound of the invention.
Activity=(CC50 of agent alone)/(CC50 of agent with compound). • Ratio of AUC. Activity=(Area of the dose-concentration curve of cytotoxic agent combined with one concentration of compound)/(Area of the dose-concentration curve of cytotoxic agent alone). (Lehar J. et al, 2008 (molecular systems biology 4:215)).

Row | Compound | Activity: ratio (CC50 of CFZ alone)/(CC50 of CFZ in combination with compound of the invention)
1 | Cn1ccc2cc(C[C@H](CC(=O)NO)n3cc(CNC(=O)c4ccc(F)cc4)nn3)ccc21 [Compound 177, (R)-4-fluoro-N-((1-(4-(hydroxyamino)-1-(1-methyl-1H-indol-5-yl)-4-oxobutan-2-yl)-1H-1,2,3-triazol-4-yl)methyl)benzamide] | 1.7
2 | CC(C)CN(Cc1cn([C@@H](CC(=O)NO)Cc2c[nH]c3ccccc23)nn1)C(=O)c1ccc(F)c(F)c1 [Compound 98, 3,4-difluoro-N-[[1-[(1R)-3-(hydroxyamino)-1-(1H-indol-3-ylmethyl)-3-oxo-propyl]triazol-4-yl]methyl]-N-isobutyl-benzamide] | 2.0
3 | CC(NC(=O)c1ccc(F)cc1)c1cn([C@@H](CC(=O)NO)Cc2ccc3c(c2)C(C)(C)CCC3(C)C)nn1 (stereo partly drawn) [Compound 172, 4-fluoro-N-(1-(1-((R)-4-(hydroxyamino)-4-oxo-1-(5,5,8,8-tetramethyl-5,6,7,8-tetrahydronaphthalen-2-yl)butan-2-yl)-1H-1,2,3-triazol-4-yl)ethyl)benzamide] | 3.9
4 | CC(NC(=O)c1ccc(F)cc1)c1cn([C@@H](CC(=O)NO)Cc2ccc3ccccc3c2)nn1 (stereo partly drawn) [Compound 164, 4-fluoro-N-(1-(1-((R)-4-(hydroxyamino)-1-(naphthalen-2-yl)-4-oxobutan-2-yl)-1H-1,2,3-triazol-4-yl)ethyl)benzamide] | 2.0
5 | O=C(C[C@@H](Cc1ccc2sccc2c1)n1cc(CNC(=O)c2ccc(F)cc2)nn1)NO [Compound 173, (R)—N-((1-(1-(benzo[b]thiophen-5-yl)-4-(hydroxyamino)-4-oxobutan-2-yl)-1H-1,2,3-triazol-4-yl)methyl)-4-fluorobenzamide] | 2.1
6 | CC(NC(=O)c1ccc(F)cc1)c1cn([C@@H](CC(=O)NO)Cc2ccc3c(c2)CCCC3)nn1 (stereo partly drawn) [Compound 167, 4-fluoro-N-(1-(1-((R)-4-(hydroxyamino)-4-oxo-1-(5,6,7,8-tetrahydronaphthalen-2-yl)butan-2-yl)-1H-1,2,3-triazol-4-yl)ethyl)benzamide] | 2.5
7 | O=C(C[C@@H](Cc1ccc2ccccc2c1)n1nncc1CNC(=O)C1CCCCC1)NO [Compound 13, (R)-Cyclohexanecarboxylic acid [3-(1-hydroxycarbamoylmethyl-2-naphthalen-2-yl-ethyl)-3H-[1,2,3]triazol-4-ylmethyl]-amide] | 1.2
8 | O=C(C[C@@H](Cc1ccc2ccccc2c1)n1cc(CNC(=O)c2cccc(F)c2)nn1)NO [Compound 184, (R)-3-fluoro-N-((1-(4-(hydroxyamino)-1-(naphthalen-2-yl)-4-oxobutan-2-yl)-1H-1,2,3-triazol-4-yl)methyl)benzamide] | 2.4
9 | COc1ccc2cc([C@H](C)C(=O)NCc3cnnn3[C@@H](CC(=O)NO)Cc3ccc4ccccc4c3)ccc2c1 [Compound 26, (R,S)—N-hydroxy-3-(5-{[2-(6-methoxy-naphthalen-2-yl)-propionylamino]-methyl}-[1,2,3]triazol-1-yl)-4-naphthalen-2-yl-butyramide] | 1.8
10 | O=C(C[C@@H](Cc1ccc2c(c1)CCC(=O)N2)n1cc(CNC(=O)c2ccc(F)c(F)c2)nn1)NO [Compound 171, (R)-3,4-difluoro-N-((1-(4-(hydroxyamino)-4-oxo-1-(2-oxo-1,2,3,4-tetrahydroquinolin-6-yl)butan-2-yl)-1H-1,2,3-triazol-4-yl)methyl)benzamide] | 1.2
11 | O=C(C[C@@H](Cc1ccc2ncsc2c1)n1cc(CNC(=O)c2ccc(F)c(F)c2)nn1)NO [Compound 178, (R)—N-((1-(1-(benzo[d]thiazol-6-yl)-4-(hydroxyamino)-4-oxobutan-2-yl)-1H-1,2,3-triazol-4-yl)methyl)-3,4-difluorobenzamide] | 1.3
12 | CC(NC(=O)c1ccc(F)cc1)c1cn([C@@H](CC(=O)NO)Cc2csc3ccccc23)nn1 (stereo partly drawn) [Compound 181, N-(1-(1-((R)-1-(benzo[b]thiophen-3-yl)-4-(hydroxyamino)-4-oxobutan-2-yl)-1H-1,2,3-triazol-4-yl)ethyl)-4-fluorobenzamide] | 1.9
13 | O=C(C[C@@H](Cc1c[nH]c2ccccc12)n1cc([C@@H]2CCCN2C(=O)c2ccc(F)c(F)c2)nn1)NO [Compound 88, (3R)-3-[4-[(2S)-1-(3,4-difluorobenzoyl)pyrrolidin-2-yl]triazol-1-yl]-4-(1H-indol-3-yl)butanehydroxamic acid] | 1.7
14 | O=C(C[C@@H](Cc1ccc2ccsc2c1)n1cc(CNC(=O)c2ccc(F)cc2)nn1)NO [Compound 174, (R)—N-((1-(1-(benzo[b]thiophen-6-yl)-4-(hydroxyamino)-4-oxobutan-2-yl)-1H-1,2,3-triazol-4-yl)methyl)-4-fluorobenzamide] | 2.0 and 1.5
15 | O=C(C[C@@H](Cc1cc2ccccc2s1)n1cc(CNC(=O)c2ccc(F)cc2)nn1)NO [Compound 182, (S)—N-((1-(1-(benzo[b]thiophen-2-yl)-4-(hydroxyamino)-4-oxobutan-2-yl)-1H-1,2,3-triazol-4-yl)methyl)-4-fluorobenzamide] | 2.7
16 | O=C(C[C@@H](Cc1cnc2ccccc2c1)n1cc(CNC(=O)c2ccc(F)c(F)c2)nn1)NO [Compound 143, (R)-3,4-difluoro-N-((1-(4-(hydroxyamino)-4-oxo-1-(quinolin-3-yl)butan-2-yl)-1H-1,2,3-triazol-4-yl)methyl)benzamide] | 1.1
17 | CN(Cc1cn([C@@H](CC(=O)NO)Cc2ccc3ccccc3c2)nn1)C(=O)c1ccc(F)cc1 [Compound 185, (R)-4-fluoro-N-((1-(4-(hydroxyamino)-1-(naphthalen-2-yl)-4-oxobutan-2-yl)-1H-1,2,3-triazol-4-yl)methyl)-N-methylbenzamide] | 1.8
18 | CC(C)CCN(Cc1cn([C@@H](CC(=O)NO)Cc2c[nH]c3ccccc23)nn1)C(=O)c1ccc(F)c(F)c1 [Compound 99, 3,4-difluoro-N-[[1-[(1R)-3-(hydroxyamino)-1-(1H-indol-3-ylmethyl)-3-oxo-propyl]triazol-4-yl]methyl]-N-isopentyl-benzamide] | 2.5
19 | O=C(C[C@@H](Cc1c[nH]c2ccccc12)n1cc(C(Cc2ccc(O)cc2)NC(=O)c2ccc(F)c(F)c2)nn1)NO (stereo partly drawn) [Compound 146, 3,4-Difluoro-N-[1-[1-[(1R)-3-(hydroxyamino)-1-(1H-indol-3-ylmethyl)-3-oxo-propyl]triazol-4-yl]-2-(4-hydroxyphenyl)ethyl]benzamide] | 1.4
20 | O=C(C[C@@H](Cc1ccc2ccccc2c1)n1cc(CC(=O)Nc2ccc(F)c(F)c2)nn1)NO [Compound 74, 3-{4-[(3,4-Difluoro-phenylcarbamoyl)-methyl]-[1,2,3]triazol-1-yl}-N-hydroxy-4-naphthalen-2-yl-butyramide] | 1.6
